Data: patent EP4778933A1 (Chengdu Hyperway Pharmaceuticals Co., Ltd., priority 2023, dated 2025)
Like-named read-outs stand apart in the source and are kept apart here.

Tested on: KRAS G12D-mediated ERK phosphorylation
Experiment: Inhibition of KRAS G12D-mediated ERK phosphorylation in AGS cells (in-cell pERK/GAPDH immunofluorescence)
Format: cell-based
Protocol: Day 1: AGS cells, SW480 cells, NCI H358 cells, HCT116 cells, and KP2 cells were seeded into 384-well cell culture plates and cultured overnight in a 37°C, 5% CO2 incubator.
Day 2: The compounds were added to the plates using Echo550 and incubated for 3 h in a 37°C, 5% CO2 incubator. Then, cells fixed with paraformaldehyde, permeated with methanol and blocked with a blocking solution were added. Finally, a mixed solution of primary antibodies (rabbit anti pERK, mouse anti GAPDH) was added, and the mixture was incubated overnight at 4°C.
Day 3: The mixed solution of primary antibodies was discarded, and a mixed solution of secondary antibodies (goat anti rabbit 800 CW, goat anti mouse 680 RD) was added. The resulting mixture was incubated at room temperature in the dark. Finally, the cell culture plate was washed with PBST, and then inverted for 1 minute of centrifugation. The fluorescence signal values were read with Odyssey CLx.
ERK phosphorylation was calculated according to the following formula: [formula] • Negative control: DMSO • Positive control: 10 µM Reference • IC50 value was fitted and calculated by XLFit 5.0 using the parametric formula. • Y = Bottom+(Top-Bottom)/(1+10^((LogIC50-X)*HillSlope)) • X: log value of compound concentration. • Y: average value of relative expression of p-ERK between replicate wells.

[1] = Homo sapiens, AGS, 3 h, AGS cells, 3 h incubation, read-out: Inhibitory activity on ERK phosphorylation (IC50) AGS-G12D
[2] = Homo sapiens, AGS, 3 h, read-out: Inhibitory activity on ERK phosphorylation (IC50) AGS-G12D, AGS cells, 3 h incubation
[3] = AGS cells, 3 h incubation, read-out: Inhibitory activity on ERK phosphorylation (IC50) AGS-G12D

N#Cc1c(N)sc2c(F)ccc(-c3c(Cl)cc4c(N5CCOCC(O)(CO)C5)nc(OCC56CCCN5C(c5cc(F)c(F)c(F)c5)CC6)nc4c3F)c12 (racemic) [Example 2, 2-amino-4-{6-chloro-8-fluoro-4-[6-hydroxy-6-(hydroxymethyl)-1,4-oxazepan-4-yl]-2-({[3-(3,4,5-trifluorophenyl)-2,3,5,6,7,7a-hexahydro-1H-pyrrolizin-7a-yl]methyl}oxy)quinazolin-7-yl}-7-flu orobenzo[b]thiophene-3-carbonitrile]
IC50 [1]: > 1000 nM

CC1=NOC2(CCCN(c3nc(OCC45CCCN4C(c4cc(F)c(F)c(F)c4)CC5)nc4c(F)c(-c5ccc(F)c6sc(N)c(C#N)c56)c(Cl)cc34)CC2)C1 (racemic) [Example 3, 2-amino-4-[6-chloro-8-fluoro-4-(3-methyl-2,8-diaza-1-oxaspiro[4.6]undec-2-en-8-yl)-2-({[3-(3,4,5-trifluorophenyl)-2,3,5,6,7,7a-hexahydro-1H-pyrrolizin-7a-yl]methyl}oxy)quinazolin-7-yl]-7-fl uorobenzo[b]thiophene-3-carbonitrile]
IC50 [1]: > 1000 nM

N#Cc1c(N)sc2c(F)ccc(-c3c(Cl)cc4c(N5CCCC(O)(C(F)(F)F)CC5)nc(OCC56CCCC5C(c5cc(F)c(F)c(F)c5)CC6)nc4c3F)c12 (racemic) [Example 5, 2-amino-4-{6-chloro-8-fluoro-4-[4-hydroxy-4-(trifluoromethyl)azepan-1-yl]-2-({[1-(3,4,5-trifluorophenyl)octahydrocyclopenta[1,2-a][5]annulen-3a-yl]methyl}oxy)quinazolin-7-yl}-7-fluorobenzo[b]thiop hene-3-carbonitrile]
IC50 [1]: 313 nM

CC1(O)CCCN(c2nc(OCC34CCCN3C(c3cc(F)c(F)c(F)c3)CC4)nc3c(F)c(-c4ccc(F)c5sc(N)c(C#N)c45)c(Cl)cc23)CC1 (racemic) [Example 6, 2-amino-4-[6-chloro-8-fluoro-4-(4-hydroxy-4-methylazepan-1-yl)-2-({[3-(3,4,5-trifluorophenyl)-2,3,5,6,7,7a-hexahydro-1H-pyrrolizin-7a-yl]methyl}oxy)quinazolin-7-yl]-7-fluorobenzo[b]thioph ene-3-carbonitrile]
IC50 [1]: 787 nM

N#Cc1c(N)sc2c(F)ccc(-c3c(Cl)cc4c(N5CC6C[C@@H](C5)c5cccc(=O)n5C6)nc(OCC56CCCN5C(c5cc(F)c(F)c(F)c5)CC6)nc4c3F)c12 (mixture of isomers) [Example 7, 2-amino-4-{6-chloro-8-fluoro-4-[(1S)-6-oxo-7,11-diazatricyclo[7.3.1.02,7]trideca-2(3),4-dien-11-yl]-2-({[3-(3,4,5-trifluorophenyl)-2,3,5,6,7,7a-hexahydro-1H-pyrrolizin-7a-yl]methyl}oxy)quinazolin-7-yl}-7-fluorobenzo[b]thiophene-3-carbonitrile]
IC50 (Homo sapiens, AGS cells, 3 h incubation, read-out: Inhibitory activity on ERK phosphorylation (IC50) AGS-G12D): 738 nM

N#Cc1c(N)sc2c(F)ccc(-c3c(Cl)cc4c(N5CC6COCC6C5)nc(OCC56CCCN5C(c5cc(F)c(F)c(F)c5)CC6)nc4c3F)c12 (racemic) [Example 8, 4-[4-(3,3a,4,5,6,6a-hexahydro-1H-furano[4,3-c]pyrrolo-5-yl)-6-chloro-8-fluoro-2-({[3-(3,4,5-trifluorophenyl)-2,3,5,6,7,7a-hexahydro-1H-pyrrolizin-7a-yl]methyl}oxy)quinazolin-7-yl]-2-amino-7-fluorobenzo[b]thiophene-3-carbonitrile]
IC50 [2]: > 1000 nM

N#Cc1c(N)sc2c(F)ccc(-c3c(Cl)cc4c(N5CCC6(CC5)CC(O)CO6)nc(OCC56CCCN5C(c5cc(F)c(F)c(F)c5)CC6)nc4c3F)c12 (racemic) [Example 14, 8-[7-(2-amino-7-fluorobenzo[b]thiophen-4-yl)-6-chloro-8-fluoro-2-({[3-(3,4,5-trifluorophenyl)-2,3,5,6,7,7a-hexahydro-1H-pyrrolizin-7a-yl]methyl}oxy)quinazolin-4-yl]-8-aza-1-oxaspiro[4.5]de c-3-ol]
IC50 [2]: 758 nM

COC1CCN(c2nc(OCC34CCCN3C(c3cc(F)c(F)c(F)c3)CC4)nc3c(F)c(-c4ccc(F)c5sc(N)c(C#N)c45)c(N)cc23)C1 (racemic) [Example 15, 2-amino-4-[6-amino-8-fluoro-4-(3-methoxytetrahydro-1H-pyrrol-1-yl)-2-({[3-(3,4,5-trifluor ophenyl)-2,3,5,6,7,7a-hexahydro-1H-pyrrolizin-7a-yl]methyl}oxy)quinazolin-7-yl]-7-fluorobenzo[b]t hiophene-3-carbonitrile]
IC50 [1]: > 1000 nM

CN(C)C(=O)C1CN(c2nc(OCC34CCCN3C(c3cc(F)c(F)c(F)c3)CC4)nc3c(F)c(-c4ccc(F)c5sc(N)c(C#N)c45)c(Cl)cc23)CCCO1 (racemic) [Example 16, 4-[7-(2-amino-3-cyano-7-fluorobenzo[b]thiophen-4-yl)-6-chloro-8-fluoro-2-({[3-(3,4,5-trifluorophenyl)-2,3,5,6,7,7a-hexahydro-1H-pyrrolizin-7a-yl]methyl}oxy)quinazolin-4-yl]-N,N-dimethyl-1,4-oxazepan-2-carboxamide]
IC50 [1]: 380 nM

CC1(O)COCCN(c2nc(OCC34CCCN3C(c3cc(F)c(F)c(F)c3)CC4)nc3c(F)c(-c4cccc5sc(N)c(C#N)c45)c(Cl)cc23)C1 (single isomer, unassigned) [Example 19, 2-amino-4-[6-chloro-8-fluoro-4-(6-hydroxy-6-methyl-1,4-oxazepan-4-yl)-2-({[3-(3,4,5-trifluorophenyl)-2,3,5,6,7,7a-hexahydro-1H-pyrrolizin-7a-yl]methyl}oxy)quinazolin-7-yl]benzo[b]thiophene-3-carbonitrile]
IC50 [3]: > 1000 nM

CC1(O)COCCN(c2nc(OCC34CCCN3C(c3cc(F)c(F)c(F)c3)CC4)nc3c(F)c(-c4cccc5sc(N)c(C#N)c45)c(Cl)cc23)C1 (single isomer, unassigned) [Example 20, 2-amino-4-[6-chloro-8-fluoro-4-(6-hydroxy-6-methyl-1,4-oxazepan-4-yl)-2-({[3-(3,4,5-trifluorophenyl)-2,3,5,6,7,7a-hexahydro-1H-pyrrolizin-7a-yl]methyl}oxy)quinazolin-7-yl]benzo[b]thiophene-3-carbonitrile]
IC50 [3]: > 1000 nM

CC1(O)COCCN(c2nc(OCC34CCCN3C(c3cc(F)c(F)c(F)c3)CC4)nc3c(F)c(-c4cccc5sc(N)c(C#N)c45)c(Cl)cc23)C1 (single isomer, unassigned) [Example 22, 2-amino-4-[6-chloro-8-fluoro-4-(6-hydroxy-6-methyl-1,4-oxazepan-4-yl)-2-({[3-(3,4,5-trifluorophenyl)-2,3,5,6,7,7a-hexahydro-1H-pyrrolizin-7a-yl]methyl}oxy)quinazolin-7-yl]benzo[b]thiophene-3-carbonitrile]
IC50 [3]: 43 nM

CC1(O)COCCN(c2nc(OCC34CCCN3C(c3cc(F)c(F)c(F)c3)CC4)nc3c(F)c(-c4cccc5sc(N)c(C#N)c45)c(Br)cc23)C1 (single isomer, unassigned) [Example 24, 2-amino-4-[6-bromo-8-fluoro-4-(6-hydroxy-6-methyl-1,4-oxazepan-4-yl)-2-({[3-(3,4,5-trifluoropheny 1)-2,3,5,6,7,7a-hexahydro-1H-pyrrolizin-7a-yl]methyl}oxy)quinazolin-7-yl]benzo[b]thiophene-3-carb onitrile]
IC50 (AGS cells, 3 h incubation): 106 nM

CC1(O)COCCN(c2nc(OCC34CCCN3C(c3cc(F)c(F)c(F)c3)CC4)nc3c(F)c(-c4cccc5sc(N)c(C#N)c45)c(Br)cc23)C1 (single isomer, unassigned) [Example 25, 2-amino-4-[6-bromo-8-fluoro-4-(6-hydroxy-6-methyl-1,4-oxazepan-4-yl)-2-({[3-(3,4,5-trifluoropheny 1)-2,3,5,6,7,7a-hexahydro-1H-pyrrolizin-7a-yl]methyl}oxy)quinazolin-7-yl]benzo[b]thiophene-3-carb onitrile]
IC50 (AGS cells, 3 h incubation): > 1000 nM

CC1(O)COCCN(c2nc(OCC34CCCN3C(c3cc(F)c(F)c(F)c3)CC4)nc3c(F)c(-c4cccc5sc(N)c(C#N)c45)c(Br)cc23)C1 (single isomer, unassigned) [Example 27, 2-amino-4-[6-bromo-8-fluoro-4-(6-hydroxy-6-methyl-1,4-oxazepan-4-yl)-2-({[3-(3,4,5-trifluoropheny 1)-2,3,5,6,7,7a-hexahydro-1H-pyrrolizin-7a-yl]methyl}oxy)quinazolin-7-yl]benzo[b]thiophene-3-carb onitrile]
IC50 (AGS cells, 3 h incubation): 355 nM

CC1(O)COCCN(c2nc(OCC34CCCN3C(c3cc(F)c(F)c(F)c3)CC4)nc3c(F)c(-c4cccc5sc(N)c(C#N)c45)c(I)cc23)C1 (single isomer, unassigned) [Example 29, 2-amino-4-[6-iodo-8-fluoro-4-(6-hydroxy-6-methyl-1,4-oxazepan-4-yl)-2-({[3-(3,4,5-trifluorophenyl)-2,3,5,6,7,7a-hexahydro-1H-pyrrolizin-7a-yl]methyl}oxy)quinazolin-7-yl]benzo[b]thiophene-3-carbonitrile]
IC50 [3]: 33 nM
